Assays:
Conditions in all cases: Compound concentration 10.0 uM
[1] = target: Calcium/calmodulin-dependent protein kinase type II subunit gamma (Homo sapiens) (UniProt Q13555); assay: Inhibition of CaMKIIgamma(h) at 10.0 µM in the Eurofins Kinase panel
[2] = target: Serine/threonine-protein kinase DCLK3 (Homo sapiens) (UniProt Q9C098); assay: Inhibition of DCAMKL3(h) at 10.0 µM in the Eurofins Kinase panel
[3] = target: Serine/threonine-protein kinase 17B (Homo sapiens) (UniProt O94768); assay: Inhibition of DRAK2(h) at 10.0 µM in the Eurofins Kinase panel
Sequence of Serine/threonine-protein kinase 17B (Homo sapiens) (O94768 whole entry): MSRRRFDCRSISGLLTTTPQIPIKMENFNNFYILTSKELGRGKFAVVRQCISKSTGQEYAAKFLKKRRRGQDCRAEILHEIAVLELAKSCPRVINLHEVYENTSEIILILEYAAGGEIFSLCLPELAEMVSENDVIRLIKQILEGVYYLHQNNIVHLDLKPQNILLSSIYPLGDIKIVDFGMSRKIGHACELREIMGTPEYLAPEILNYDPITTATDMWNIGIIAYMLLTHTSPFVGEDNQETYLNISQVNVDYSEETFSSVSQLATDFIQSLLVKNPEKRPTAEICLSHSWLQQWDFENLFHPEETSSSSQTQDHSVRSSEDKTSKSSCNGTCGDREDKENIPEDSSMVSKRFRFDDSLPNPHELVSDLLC

[4] = target: Eukaryotic elongation factor 2 kinase (Homo sapiens) (UniProt O00418); assay: Inhibition of eEF-2K(h) at 10.0 µM in the Eurofins Kinase panel
[5] = target: Ephrin type-A receptor 7 (Homo sapiens) (UniProt Q15375); assay: Inhibition of EphA7(h) at 10.0 µM in the Eurofins Kinase panel
Sequence of Ephrin type-A receptor 7 (Homo sapiens) (Q15375 28-998 limits assumed): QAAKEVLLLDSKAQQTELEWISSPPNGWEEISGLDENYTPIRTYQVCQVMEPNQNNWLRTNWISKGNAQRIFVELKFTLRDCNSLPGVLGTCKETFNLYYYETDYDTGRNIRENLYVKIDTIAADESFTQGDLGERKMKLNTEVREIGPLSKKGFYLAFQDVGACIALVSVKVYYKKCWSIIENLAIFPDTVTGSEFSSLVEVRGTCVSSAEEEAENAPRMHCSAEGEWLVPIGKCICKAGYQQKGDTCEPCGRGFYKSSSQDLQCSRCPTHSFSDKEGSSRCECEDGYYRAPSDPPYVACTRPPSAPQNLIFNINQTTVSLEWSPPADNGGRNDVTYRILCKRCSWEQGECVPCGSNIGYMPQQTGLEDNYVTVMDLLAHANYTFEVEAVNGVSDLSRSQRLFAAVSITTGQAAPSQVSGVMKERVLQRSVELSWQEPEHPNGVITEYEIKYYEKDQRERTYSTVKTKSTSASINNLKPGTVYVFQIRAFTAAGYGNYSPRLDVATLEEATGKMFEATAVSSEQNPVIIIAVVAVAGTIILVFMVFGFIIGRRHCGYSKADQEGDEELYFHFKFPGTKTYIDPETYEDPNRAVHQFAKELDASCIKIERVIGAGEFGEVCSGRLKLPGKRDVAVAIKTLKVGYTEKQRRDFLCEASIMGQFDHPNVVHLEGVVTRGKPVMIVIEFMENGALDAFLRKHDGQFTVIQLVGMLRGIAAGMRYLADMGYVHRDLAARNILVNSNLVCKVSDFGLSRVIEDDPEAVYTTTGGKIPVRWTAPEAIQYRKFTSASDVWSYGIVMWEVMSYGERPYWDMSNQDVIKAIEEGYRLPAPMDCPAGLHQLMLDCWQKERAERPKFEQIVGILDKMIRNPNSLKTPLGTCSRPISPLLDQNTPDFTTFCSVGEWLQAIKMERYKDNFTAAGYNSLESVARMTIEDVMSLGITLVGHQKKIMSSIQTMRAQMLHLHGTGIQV

[6] = target: Receptor-type tyrosine-protein kinase FLT3 (Homo sapiens) (UniProt P36888); assay: Inhibition of Flt3(h) at 10.0 µM in the Eurofins Kinase panel
[7] = target: Beta-adrenergic receptor kinase 1 (Homo sapiens) (UniProt P25098); assay: Inhibition of GRK2(h) at 10.0 µM in the Eurofins Kinase panel
[8] = target: G protein-coupled receptor kinase 5 (Homo sapiens) (UniProt P34947); assay: Inhibition of GRK5(h) at 10.0 µM in the Eurofins Kinase panel
[9] = target: Homeodomain-interacting protein kinase 1 (Homo sapiens) (UniProt Q86Z02); assay: Inhibition of HIPK1(h) at 10.0 µM in the Eurofins Kinase panel
[10] = target: Mitogen-activated protein kinase 9 (Homo sapiens) (UniProt P45984); assay: Inhibition of JNK2alpha2(h) at 10.0 µM in the Eurofins Kinase panel
[11] = target: Tyrosine-protein kinase Lyn (Homo sapiens) (UniProt P07948); assay: Inhibition of Lyn(h) at 10.0 µM in the Eurofins Kinase panel
Sequence of Tyrosine-protein kinase Lyn (Homo sapiens) (P07948 2-512 limits assumed): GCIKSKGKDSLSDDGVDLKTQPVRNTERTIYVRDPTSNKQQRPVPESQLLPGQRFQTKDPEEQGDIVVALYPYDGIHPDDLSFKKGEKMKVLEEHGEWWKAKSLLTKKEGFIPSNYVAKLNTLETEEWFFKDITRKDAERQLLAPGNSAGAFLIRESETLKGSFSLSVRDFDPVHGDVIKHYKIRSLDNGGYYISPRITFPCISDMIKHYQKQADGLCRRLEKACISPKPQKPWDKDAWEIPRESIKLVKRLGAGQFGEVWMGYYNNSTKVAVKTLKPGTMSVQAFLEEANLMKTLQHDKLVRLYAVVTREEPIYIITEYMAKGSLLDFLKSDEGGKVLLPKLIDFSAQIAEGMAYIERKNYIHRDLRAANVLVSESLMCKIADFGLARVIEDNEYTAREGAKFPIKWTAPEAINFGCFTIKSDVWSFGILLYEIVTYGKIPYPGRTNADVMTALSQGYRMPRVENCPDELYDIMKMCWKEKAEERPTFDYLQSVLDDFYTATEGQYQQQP

[12] = target: MAP/microtubule affinity-regulating kinase 3 (Homo sapiens) (UniProt P27448); assay: Inhibition of MARK3(h) at 10.0 µM in the Eurofins Kinase panel
[13] = target: Tyrosine-protein kinase Mer (Homo sapiens) (UniProt Q12866); assay: Inhibition of Mer(h) at 10.0 µM in the Eurofins Kinase panel
[14] = target: Dual specificity mitogen-activated protein kinase kinase 6 (Homo sapiens) (UniProt P52564); assay: Inhibition of MKK6(h) at 10.0 µM in the Eurofins Kinase panel
[15] = target: cAMP-dependent protein kinase (PKA) (Homo sapiens) (UniProt P22694+P17612+P22612); assay: Inhibition of PKA(h) at 10.0 µM in the Eurofins Kinase panel; type: protein assay
[16] = target: Protein kinase C theta type (Homo sapiens) (UniProt Q04759); assay: Inhibition of PKCtheta(h) at 10.0 µM in the Eurofins Kinase panel
Sequence of Protein kinase C theta type (Homo sapiens) (Q04759 whole entry, looked up): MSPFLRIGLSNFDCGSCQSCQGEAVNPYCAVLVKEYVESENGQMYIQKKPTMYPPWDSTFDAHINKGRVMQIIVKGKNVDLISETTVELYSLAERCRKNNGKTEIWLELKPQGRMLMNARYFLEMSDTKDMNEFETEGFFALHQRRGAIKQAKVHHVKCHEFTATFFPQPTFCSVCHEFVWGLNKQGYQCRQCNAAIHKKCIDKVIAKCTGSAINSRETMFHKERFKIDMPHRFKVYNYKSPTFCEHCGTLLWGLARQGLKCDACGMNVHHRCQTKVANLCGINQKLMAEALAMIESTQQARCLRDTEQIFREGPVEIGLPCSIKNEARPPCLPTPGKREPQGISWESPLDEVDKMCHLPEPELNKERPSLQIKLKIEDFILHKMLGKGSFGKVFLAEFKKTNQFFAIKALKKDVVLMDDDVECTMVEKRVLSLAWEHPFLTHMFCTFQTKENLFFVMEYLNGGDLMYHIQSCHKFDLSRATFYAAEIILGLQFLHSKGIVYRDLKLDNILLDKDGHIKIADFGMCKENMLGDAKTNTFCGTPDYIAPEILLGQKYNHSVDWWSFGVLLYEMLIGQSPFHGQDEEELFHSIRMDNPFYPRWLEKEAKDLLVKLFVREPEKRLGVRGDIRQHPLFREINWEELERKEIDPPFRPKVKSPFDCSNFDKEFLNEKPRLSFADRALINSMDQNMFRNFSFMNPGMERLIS

[17] = target: Protein kinase C zeta type (Homo sapiens) (UniProt Q05513); assay: Inhibition of PKCzeta(h) at 10.0 µM in the Eurofins Kinase panel
[18] = target: Tyrosine-protein kinase FRK (Homo sapiens) (UniProt P42685); assay: Inhibition of PTK5(h) at 10.0 µM in the Eurofins Kinase panel
[19] = target: Serine/threonine-protein kinase TAO3 (Homo sapiens) (UniProt Q9H2K8); assay: Inhibition of TAO3(h) at 10.0 µM in the Eurofins Kinase panel
Sequence of Serine/threonine-protein kinase TAO3 (Homo sapiens) (Q9H2K8 whole entry): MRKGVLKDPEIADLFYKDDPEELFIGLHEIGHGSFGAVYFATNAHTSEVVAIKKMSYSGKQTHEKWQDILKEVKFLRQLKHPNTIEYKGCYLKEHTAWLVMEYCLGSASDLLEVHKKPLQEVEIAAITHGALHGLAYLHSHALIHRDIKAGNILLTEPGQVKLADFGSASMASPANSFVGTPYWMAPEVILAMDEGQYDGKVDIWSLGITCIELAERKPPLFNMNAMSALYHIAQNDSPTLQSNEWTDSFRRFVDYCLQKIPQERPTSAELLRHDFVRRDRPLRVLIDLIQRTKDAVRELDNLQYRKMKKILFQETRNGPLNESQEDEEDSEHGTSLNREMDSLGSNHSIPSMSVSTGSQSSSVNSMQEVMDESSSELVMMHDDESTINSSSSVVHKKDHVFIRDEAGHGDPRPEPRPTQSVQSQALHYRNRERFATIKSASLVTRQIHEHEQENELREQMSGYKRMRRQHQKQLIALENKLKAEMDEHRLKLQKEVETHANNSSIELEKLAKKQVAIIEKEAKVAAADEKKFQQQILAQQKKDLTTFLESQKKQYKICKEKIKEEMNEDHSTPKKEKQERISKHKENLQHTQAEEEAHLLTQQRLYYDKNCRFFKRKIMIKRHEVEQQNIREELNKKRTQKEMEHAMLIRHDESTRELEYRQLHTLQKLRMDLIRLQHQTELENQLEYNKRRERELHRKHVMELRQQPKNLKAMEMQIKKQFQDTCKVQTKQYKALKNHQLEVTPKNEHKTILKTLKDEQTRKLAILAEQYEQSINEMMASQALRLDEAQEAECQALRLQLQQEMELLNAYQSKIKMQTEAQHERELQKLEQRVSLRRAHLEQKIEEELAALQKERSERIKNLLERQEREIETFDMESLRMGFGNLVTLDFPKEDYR

[20] = target: TGF-beta receptor type-1 (Homo sapiens) (UniProt P36897); assay: Inhibition of TGFBR1(h) at 10.0 µM in the Eurofins Kinase panel
[21] = target: Testis-specific serine/threonine-protein kinase 2 (Homo sapiens) (UniProt Q96PF2); assay: Inhibition of TSSK2(h) at 10.0 µM in the Eurofins Kinase panel
[22] = target: PI3-kinase p110-alpha/p85-alpha (Homo sapiens) (UniProt P27986+P42336); assay: Inhibition of PI3 Kinase (p110a/p85a)(h) at 10.0 µM in the Eurofins Kinase panel; type: protein-complex assay
[23] = target: 5-hydroxytryptamine receptor 2B (Homo sapiens) (UniProt P41595)
Sequence of 5-hydroxytryptamine receptor 2B (Homo sapiens) (P41595 whole entry): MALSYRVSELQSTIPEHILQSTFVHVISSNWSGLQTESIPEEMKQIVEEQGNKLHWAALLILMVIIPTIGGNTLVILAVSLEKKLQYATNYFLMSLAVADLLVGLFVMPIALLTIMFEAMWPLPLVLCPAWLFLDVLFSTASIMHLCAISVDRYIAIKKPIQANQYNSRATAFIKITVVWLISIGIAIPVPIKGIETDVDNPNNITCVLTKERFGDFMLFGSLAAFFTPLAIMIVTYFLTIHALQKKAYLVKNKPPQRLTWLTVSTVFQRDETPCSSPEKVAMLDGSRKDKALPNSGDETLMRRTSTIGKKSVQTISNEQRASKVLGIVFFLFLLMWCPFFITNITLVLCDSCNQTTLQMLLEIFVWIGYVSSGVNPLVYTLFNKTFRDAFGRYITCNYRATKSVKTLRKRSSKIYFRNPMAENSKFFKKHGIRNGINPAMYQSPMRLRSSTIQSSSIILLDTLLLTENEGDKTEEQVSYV

[24] = target: T1, Alpha-2A adrenergic receptor (Homo sapiens) (UniProt P08913)
T1 sequence (whole entry): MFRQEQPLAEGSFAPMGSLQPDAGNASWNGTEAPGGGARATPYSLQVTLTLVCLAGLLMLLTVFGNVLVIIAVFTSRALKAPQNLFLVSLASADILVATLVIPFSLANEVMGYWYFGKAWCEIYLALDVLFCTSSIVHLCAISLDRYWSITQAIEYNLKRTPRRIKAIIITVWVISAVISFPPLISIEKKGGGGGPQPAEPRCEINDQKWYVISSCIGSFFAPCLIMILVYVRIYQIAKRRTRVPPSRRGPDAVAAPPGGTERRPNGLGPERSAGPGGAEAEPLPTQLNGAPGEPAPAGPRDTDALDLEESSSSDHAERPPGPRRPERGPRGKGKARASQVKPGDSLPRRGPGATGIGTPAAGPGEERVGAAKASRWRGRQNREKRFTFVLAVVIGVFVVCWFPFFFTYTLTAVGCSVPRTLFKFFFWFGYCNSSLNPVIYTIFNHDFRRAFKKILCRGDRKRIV

[25] = target: Glutamate NMDA receptor (Rattus norvegicus) (UniProt P35439+Q00959+Q00960+Q00961+Q62645+Q8VHN2+Q9R1M7)
[26] = target: Kappa-type opioid receptor (Homo sapiens, UniProt P41145)
Sequence of Kappa-type opioid receptor (P41145 whole entry): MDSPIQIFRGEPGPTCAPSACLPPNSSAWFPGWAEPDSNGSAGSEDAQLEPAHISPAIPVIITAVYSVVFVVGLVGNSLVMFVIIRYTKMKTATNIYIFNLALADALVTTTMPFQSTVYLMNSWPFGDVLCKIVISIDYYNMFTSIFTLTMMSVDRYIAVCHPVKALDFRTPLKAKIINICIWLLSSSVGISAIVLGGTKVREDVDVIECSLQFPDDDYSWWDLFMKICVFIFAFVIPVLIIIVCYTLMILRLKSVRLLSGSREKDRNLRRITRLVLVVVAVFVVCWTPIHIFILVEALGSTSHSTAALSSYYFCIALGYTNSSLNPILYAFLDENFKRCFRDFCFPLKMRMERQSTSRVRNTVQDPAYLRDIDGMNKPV

[27] = target: Mu-type opioid receptor (Homo sapiens) (UniProt P35372)
[28] = target: Beta-3 adrenergic receptor (Homo sapiens) (UniProt P13945)
Sequence of Beta-3 adrenergic receptor (Homo sapiens) (P13945 whole entry, looked up): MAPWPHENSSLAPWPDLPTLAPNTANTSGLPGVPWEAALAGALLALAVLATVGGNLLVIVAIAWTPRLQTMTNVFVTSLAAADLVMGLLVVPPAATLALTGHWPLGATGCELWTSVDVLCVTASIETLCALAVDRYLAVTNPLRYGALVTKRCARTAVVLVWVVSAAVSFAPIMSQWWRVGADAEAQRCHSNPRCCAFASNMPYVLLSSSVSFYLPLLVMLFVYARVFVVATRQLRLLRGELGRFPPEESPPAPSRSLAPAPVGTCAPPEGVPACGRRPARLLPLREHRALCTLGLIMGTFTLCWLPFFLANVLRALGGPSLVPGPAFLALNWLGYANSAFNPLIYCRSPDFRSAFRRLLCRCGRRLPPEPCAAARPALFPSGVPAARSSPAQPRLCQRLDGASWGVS

[29] = target: Serine/threonine-protein kinase PAK 6 (Homo sapiens) (UniProt Q9NQU5); assay: Inhibition of PAK6(h) at 10.0 µM in the Eurofins Kinase panel

SMILES	inhibition [1] [%]	inhibition [2] [%]	inhibition [3] [%]	inhibition [4] [%]	inhibition [5] [%]	inhibition [6] [%]	inhibition [7] [%]	inhibition [8] [%]	inhibition [9] [%]	inhibition [10] [%]	inhibition [11] [%]	inhibition [12] [%]	inhibition [13] [%]	inhibition [14] [%]	inhibition [15] [%]	inhibition [16] [%]	inhibition [17] [%]	inhibition [18] [%]	inhibition [19] [%]	inhibition [20] [%]	further results
O=c1n(Cc2cncn2-c2cccc(Cl)c2)nc(-c2ccc(Cl)cc2)n1C[C@H](O)C(F)(F)F	0.32	-6.07	-2.64	-4.87	3.37	-4.56	-6.21	-0.58	1.31	2.28	-1.91	-3.59	-6.11	5.77	2.56	14.5	8.34	0.3	3.07	3.39	inhibition [21]: 2.9%; inhibition [22]: -1.29%; inhibition [23]: 7.98%; inhibition [24]: 5%; inhibition [25]: -4%; inhibition [26]: 10%; inhibition [27]: -6%; inhibition [28]: 6%; inhibition [29]: -5.8%
C[C@H](O)c1nc(Cn2nc(-c3ccc(Cl)cc3)n(C[C@H](O)C(F)(F)F)c2=O)nn1-c1cccc(Cl)c1 [PECAVAPTAN]	-3.01	-4.82	2.39	-9.42	4.11	0.7	5.86	2.6	-2.92	-1.69	-5.89	-2.13	-0.91	7.34	-3.46	3.44	18.7	0.28	5.55	5.09	inhibition [21]: -2.02%; inhibition [22]: -2.88%; inhibition [23]: 13.1%; inhibition [24]: 3%; inhibition [25]: -10%; inhibition [26]: 19%; inhibition [27]: 24%; inhibition [28]: -10%; inhibition [29]: -4.81%
